Experiment [1] deals with T1, JAK2 (Homo sapiens, UniProt O60674).
T1 construct: endogenous in cells; host or cells: Molt4 (ATCC CRL-1582) and Ramos (ATCC CRL-1596) cell lysate; mixed Molt4/Ramos lysate 1:2
In words: Kinobeads assay, JAK2 (competition binding in cell lysate, dot blot detection). The following applies: mixed Molt4/Ramos lysate. The method, then:
(§1) The compounds of the present invention as described in the previous examples were tested in a Kinobeads™ assay as described for ZAP-70 (WO-A 2007/137867). Briefly, test compounds (at various concentrations) and the affinity matrix with the immobilized aminopyrido-pyrimidine ligand 24 were added to cell lysate aliquots and allowed to bind to the proteins in the lysate sample. After the incubation time the beads with captured proteins were separated from the lysate. Bound proteins were then eluted and the presence of JAK2 and JAK3 was detected and quantified using specific antibodies in a dot blot procedure and the Odyssey infrared detection system. Dose response curves for individual kinases were generated and IC50 values calculated. Kinobeads™ assays for ZAP-70 (WO-A 2007/137867) and for kinase selectivity profiling (WO-A 2006/134056) have been previously described.
(§2) 5×DP buffer: 250 mM Tris-HCl pH 7.4, 25% Glycerol, 7.5 mM MgCl2, 750 mM NaCl, 5 mM Na3VO4; filter the 5×DP buffer through a 0.22 μm filter and store in aliquots at −80° C. The 5×DP buffer is diluted with H2O to 1×DP buffer containing 1 mM DTT and 25 mM NaF.
(§3) Stock solutions of test compounds were prepared in DMSO. In a 96 well plate 30 μL solution of diluted test compounds at 5 mM in DMSO were prepared. Starting with this solution a 1:3 dilution series (9 steps) was prepared. For control experiments (no test compound) a buffer containing 2% DMSO was used.
(§4) Molt4 cells (ATCC catalogue number CRL-1582) and Ramos cells (ATCC catalogue number CRL-1596) were grown in 1 L Spinner flasks (Integra Biosciences, #182101) in suspension in RPMI 1640 medium (Invitrogen, #21875-034) supplemented with 10% Fetal Bovine Serum (Invitrogen) at a density between 0.15×10^6 and 1.2×10^6 cells/mL. Cells were harvested by centrifugation, washed once with 1×PBS buffer (Invitrogen, #14190-094) and cell pellets were frozen in liquid nitrogen and subsequently stored at −80° C. Cells were homogenized in a Potter S homogenizer in lysis buffer: 50 mM Tris-HCl, 0.8% NP40, 5% glycerol, 150 mM NaCl, 1.5 mM MgCl2, 25 mM NaF, 1 mM sodium vanadate, 1 mM DTT, pH 7.5. One complete EDTA-free tablet (protease inhibitor cocktail, Roche Diagnostics, 1873580) per 25 mL buffer was added. The material was dounced 10 times using a mechanized POTTER S, transferred to 50 mL falcon tubes, incubated for 30 minutes on ice and spun down for 10 minutes at 20,000 g at 4° C. (10,000 rpm in Sorvall SLA600, precooled). The supernatant was transferred to an ultracentrifuge (UZ)-polycarbonate tube (Beckmann, 355654) and spun for 1 hour at 100.000 g at 4° C. (33.500 rpm in Ti50.2, precooled). The supernatant was transferred again to a fresh 50 mL falcon tube, the protein concentration was determined by a Bradford assay (BioRad) and samples containing 50 mg of protein per aliquot were prepared. The samples were immediately used for experiments or frozen in liquid nitrogen and stored frozen at −80° C.
(§5) Cell lysate (approximately 50 mg protein per plate) was thawed in a water bath at room temperature and then stored on ice. To the thawed cell lysate 1×DP 0.8% NP40 buffer containing protease inhibitors (1 tablet for 25 mL buffer; EDTA-free protease inhibitor cocktail; Roche Diagnostics 1873580) was added in order to reach a final protein concentration of 10 mg/mL total protein. The diluted cell lysate was stored on ice. Mixed Molt4/Ramos lysate was prepared by combining one volume of Molt4 lysate and two volumes of Ramos lysate (ratio 1:2).
(§6) Plates were sealed and incubated for 3 hours in a cold room on a plate shaker (Heidolph tiramax 1000) at 750 rpm. Afterwards the plate was washed 3 times with 230 μL washing buffer (1×DP 0.4% NP40). The filter plate was placed on top of a collection plate (Greiner bio-one, PP-microplate 96 well V-shape, 65120) and the beads were then eluted with 20 μL of sample buffer (100 mM Tris, pH 7.4, 4% SDS, 0.00025% bromophenol blue, 20% glycerol, 50 mM DTT). […]

In experiment [2] the target is T2, JAK3 (Homo sapiens, UniProt P52333).
T2 construct: endogenous in cells; host or cells: Molt4 (ATCC CRL-1582) and Ramos (ATCC CRL-1596) cell lysate; mixed Molt4/Ramos lysate 1:2
T2 sequence (P52333 1-1124): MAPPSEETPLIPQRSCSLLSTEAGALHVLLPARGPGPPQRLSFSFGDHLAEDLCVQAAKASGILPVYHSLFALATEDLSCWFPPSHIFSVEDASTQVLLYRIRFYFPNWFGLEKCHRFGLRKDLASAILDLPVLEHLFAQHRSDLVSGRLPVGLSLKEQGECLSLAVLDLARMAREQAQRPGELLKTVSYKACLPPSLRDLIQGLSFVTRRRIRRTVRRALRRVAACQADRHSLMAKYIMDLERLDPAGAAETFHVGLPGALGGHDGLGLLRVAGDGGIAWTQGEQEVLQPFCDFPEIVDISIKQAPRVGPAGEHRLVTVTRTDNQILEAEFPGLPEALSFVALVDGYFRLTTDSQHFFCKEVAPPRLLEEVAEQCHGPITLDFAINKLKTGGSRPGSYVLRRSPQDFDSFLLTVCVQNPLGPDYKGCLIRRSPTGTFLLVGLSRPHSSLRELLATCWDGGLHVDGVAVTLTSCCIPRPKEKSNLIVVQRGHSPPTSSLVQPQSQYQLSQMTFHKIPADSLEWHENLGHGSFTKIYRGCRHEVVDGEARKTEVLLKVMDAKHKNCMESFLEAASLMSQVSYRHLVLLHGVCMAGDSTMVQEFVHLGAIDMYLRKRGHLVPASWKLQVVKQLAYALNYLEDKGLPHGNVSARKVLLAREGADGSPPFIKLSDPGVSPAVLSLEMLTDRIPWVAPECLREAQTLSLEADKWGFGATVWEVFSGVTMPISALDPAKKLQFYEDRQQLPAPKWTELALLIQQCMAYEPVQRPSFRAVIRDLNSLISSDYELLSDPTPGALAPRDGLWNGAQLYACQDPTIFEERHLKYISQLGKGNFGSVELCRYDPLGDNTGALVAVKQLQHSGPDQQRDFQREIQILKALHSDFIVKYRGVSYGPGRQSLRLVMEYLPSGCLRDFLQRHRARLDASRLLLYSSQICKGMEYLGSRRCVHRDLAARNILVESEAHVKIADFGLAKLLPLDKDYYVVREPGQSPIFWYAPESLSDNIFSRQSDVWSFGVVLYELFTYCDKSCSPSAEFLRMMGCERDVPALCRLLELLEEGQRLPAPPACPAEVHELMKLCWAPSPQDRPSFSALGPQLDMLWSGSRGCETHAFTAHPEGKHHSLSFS
In words: Kinobeads assay, JAK3 (competition binding in cell lysate, dot blot detection). The settings on record: mixed Molt4/Ramos lysate. How it is done:
as §1, §2, §3, §4, §5, §6

T1 sequence (O60674 whole entry): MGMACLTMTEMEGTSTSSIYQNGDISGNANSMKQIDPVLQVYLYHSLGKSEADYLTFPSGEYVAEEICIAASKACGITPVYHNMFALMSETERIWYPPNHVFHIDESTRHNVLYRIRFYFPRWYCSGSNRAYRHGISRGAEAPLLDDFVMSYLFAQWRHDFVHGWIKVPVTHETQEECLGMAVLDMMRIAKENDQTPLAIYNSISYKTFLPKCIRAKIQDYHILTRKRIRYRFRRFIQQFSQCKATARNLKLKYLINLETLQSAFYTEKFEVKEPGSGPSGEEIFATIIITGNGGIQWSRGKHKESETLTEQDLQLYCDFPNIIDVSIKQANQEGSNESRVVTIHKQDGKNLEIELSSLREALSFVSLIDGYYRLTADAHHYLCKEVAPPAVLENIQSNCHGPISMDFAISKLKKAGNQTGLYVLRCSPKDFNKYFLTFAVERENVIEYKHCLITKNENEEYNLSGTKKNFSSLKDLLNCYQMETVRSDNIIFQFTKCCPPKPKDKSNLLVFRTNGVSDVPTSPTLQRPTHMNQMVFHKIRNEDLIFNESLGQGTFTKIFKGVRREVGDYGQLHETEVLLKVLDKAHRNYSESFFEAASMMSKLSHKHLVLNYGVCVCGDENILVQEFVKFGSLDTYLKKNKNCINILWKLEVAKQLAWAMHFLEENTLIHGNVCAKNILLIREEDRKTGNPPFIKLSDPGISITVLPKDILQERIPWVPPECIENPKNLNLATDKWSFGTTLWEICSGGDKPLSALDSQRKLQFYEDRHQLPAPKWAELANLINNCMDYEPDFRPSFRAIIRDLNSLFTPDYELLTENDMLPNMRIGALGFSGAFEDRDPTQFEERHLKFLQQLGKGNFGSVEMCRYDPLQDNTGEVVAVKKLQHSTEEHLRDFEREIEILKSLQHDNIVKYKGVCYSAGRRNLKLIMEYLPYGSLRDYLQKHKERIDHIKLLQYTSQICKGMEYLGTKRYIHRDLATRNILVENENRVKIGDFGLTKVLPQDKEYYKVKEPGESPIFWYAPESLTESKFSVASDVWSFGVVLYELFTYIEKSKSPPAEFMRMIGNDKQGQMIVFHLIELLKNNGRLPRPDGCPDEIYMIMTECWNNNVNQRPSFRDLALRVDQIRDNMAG

As a reminder, the IC50 is the midpoint of a concentration-inhibition curve. High values mean weaker potency, low ones greater potency. `CC1CCC(n2ncc3cnc(Nc4cnn(C)c4)nc32)C1` (mixture of isomers) [Example 15, N-(1-Methyl-1H-pyrazol-4-yl)-1-(3-methylcyclopentyl)-1H-pyrazolo[3,4-d]pyrimidin-6-amine]: the IC50 in experiment [1] was 1000 to 10000 nM; in experiment [2], 100 to 1000 nM.
Taken in the same sequence, the figures for `C[C@H]1CCCC[C@@H]1n1ncc2cnc(Nc3cnn(C)c3)nc21` (racemic) [Example 7, Rac-trans-N-(1-methyl-1H-pyrazol-4-yl)-1-(2-methylcyclohexyl)-1H-pyrazolo[3,4-d]pyrimidin-6-amine] were 1000 to 10000 nM and less than 100 nM.
As to `C[C@H]1CCCC[C@H]1n1ncc2cnc(Nc3cnn(C)c3)nc21` (racemic) [Example 11, Rac-cis-N-(1-methyl-1H-pyrazol-4-yl)-1-(2-methylcyclohexyl)-1H-pyrazolo[3,4-d]pyrimidin-6-amine], the IC50 lay in the range of 1000 to 10000 nM in experiment [1] and 100 to 1000 nM in experiment [2].
Taken in the same sequence, the figures for `C[C@H]1CCC[C@H](n2ncc3cnc(Nc4cnn(C)c4)nc32)C1` (racemic) [Example 19, Rac-trans-N-(1-methyl-1H-pyrazol-4-yl)-1-(3-methylcyclohexyl)-1H-pyrazolo[3,4-d]pyrimidin-6-amine] were 1000 to 10000 nM and less than 100 nM.
As to `C[C@H]1CCCC[C@@H]1n1ncc2cnc(Nc3cnn(CCO)c3)nc21` (racemic) [Example 50, Rac-trans-2-(4-((1-(2-methylcyclohexyl)-1H-pyrazolo[3,4-d]pyrimidin-6-yl)amino)-1H-pyrazol-1-yl)ethanol], the IC50 in experiment [1] was 1000 to 10000 nM; in experiment [2], less than 100 nM.
Take `Cn1cc(Nc2ncc3cnn(CC4CCCN(S(C)(=O)=O)C4)c3n2)cn1` (centres unmarked) [Example 1]: the IC50 in experiment [1] is 1000 to 10000 nM; in experiment [2], less than 100 nM.
For the compound `Cn1cc(Nc2ncc3cnn(CCCNS(C)(=O)=O)c3n2)cn1` [Example 2, N-(3-(6-(1-methyl-1H-pyrazol-4-ylamino)-1H-pyrazolo[3,4-d]pyrimidin-1-yl)propyl)methanesulfonamide], the values for the IC50 in experiment [1] and in experiment [2] were 1000 to 10000 nM and 100 to 1000 nM, respectively.
Turning to `Cn1cc(Nc2ncc3cnn(C4CCN(S(C)(=O)=O)CC4)c3n2)cn1` [Example 3, N-(1-methyl-1H-pyrazol-4-yl)-1-(1-(methylsulfonyl)piperidin-4-yl)-1H-pyrazolo[3,4-d]pyrimidin-6-amine], the IC50 lay in the range of 1000 to 10000 nM in experiment [1] and 100 to 1000 nM in experiment [2].
Taken in the same sequence, the figures for `CS(=O)(=O)N1CCCC(Cn2ncc3cnc(Nc4cnn(CC(F)F)c4)nc32)C1` (centres unmarked) [Example 4, N-(1-(2,2-difluoroethyl)-1H-pyrazol-4-yl)-1-((1-(methylsulfonyl)piperidin-3-yl)methyl)-1H-pyrazolo[3,4-d]pyrimidin-6-amine] were 1000 to 10000 nM and less than 100 nM.
Take `Cn1cc(Nc2ncc3cnn(CC4CCCNC4)c3n2)cn1` (centres unmarked) [Example 5, N-(1-methyl-1H-pyrazol-4-yl)-1-(piperidin-3-ylmethyl)-1H-pyrazolo[3,4-d]pyrimidin-6-amine]: the IC50 in experiment [1] fell in the range of 1000 to 10000 nM; in experiment [2], 100 to 1000 nM.
Taken in the same sequence, the figures for `CN1CCCC(Cn2ncc3cnc(Nc4cnn(C)c4)nc32)C1` (centres unmarked) [Example 6, N-(1-methyl-1H-pyrazol-4-yl)-1-((1-methylpiperidin-3-yl)methyl)-1H-pyrazolo[3,4-d]pyrimidin-6-amine] were 1000 to 10000 nM and less than 100 nM.
With `Cn1cc(Nc2ncc3cnn(C4CCCCC4)c3n2)cn1` [Example 8, 1-cyclohexyl-N-(1-methyl-1H-pyrazol-4-yl)-1H-pyrazolo[3,4-d]pyrimidin-6-amine], the IC50 in experiment [1] is more than 10000 nM; in experiment [2] it was 100 to 1000 nM.
With `Cn1cc(Nc2ncc3cnn(C4CCOCC4)c3n2)cn1` [Example 9, N-(1-methyl-1H-pyrazol-4-yl)-1-(tetrahydro-2H-pyran-4-yl)-1H-pyrazolo[3,4-d]pyrimidin-6-amine], the values for the concentration for half-maximal inhibition (IC50) in experiment [1] and in experiment [2] were more than 10000 nM and 100 to 1000 nM, respectively.

The values are drawn from patent US20130131043A1, “PYRAZOLE COMPOUNDS AS JAK INHIBITORS” (priority 2010, published 2013).
